Data on eight compounds can be found in US20170049786A1, “MTOR PATHWAY INHIBITORS FOR TREATING OCULAR DISORDERS” (Santen Pharmaceutical Co., Ltd., priority 2009, published 2017).

Series [1] in a line: Solubility profiles of therapeutic agents (Table 71-1). The note with it: for physical state when formulated in PEG400: 3% therapeutic agent and 97% PEG400.
Method: Various therapeutic agents (e.g., rapalogs and/or mTOR inhibitors) were formulated as liquid solutions or suspensions for ophthalmic administration by injection. The therapeutic agents of exemplary formulations were as follows: everolimus, sirolimus, temsirolimus, zotarolimus, PP242, PP30 and palomid 529.
Liquid formulations containing 3% therapeutic agent (everolimus, sirolimus, temsirolimus or zotarolimus) and 97% PEG400 were prepared.
Series [2] concerns Human umbilical vein endothelial cells (HUVEC). As to the kind of experiment: Inhibition of VEGF-induced proliferation, BrdU incorporation. The series is classed as cell-based. Particulars: for IC50: Homo sapiens, 12.5 ng/mL VEGF. Here is the method: The objective of this study was to evaluate the anti-proliferative effects of various therapeutic agents (everolimus, sirolimus, tacrolimus, temsirolimus, zotarolimus, PP242, PP30, Palomid 529, WYE-354, and KU-0063794) by measuring bromodeoxyuridine (BrdU) incorporation into cellular DNA. The therapeutic agents were dissolved directly into class A vials in less than 1% DMSO. Human umbilical vein endothelial cells (HUVEC) were obtained from Lonza (Catalog No. CC-2517). Vascular endothelial growth factor (VEGF) was obtained from R&D Systems (Catalog No. 293-VE-010). A BrdU Assay kit was obtained from Calbiochem (Catalog No. Q1A58). The inhibitory effect of rapamycin on HUVEC proliferation has been described (Kwon et al., Invest Opththamol Vis Sci, 46:454-4699, 2005).
Early passage HUVEC were plated at 2,000 cells/well in 96-well plates for 24 hours. The cells were then starved for 24 hours by replacing medium with medium lacking serum and HUVEC medium growth factors. After overnight starvation, wells were inoculated with (i) medium containing 2.5% serum and 12.5 ng/mL VEGF, (ii) medium with 12.5 ng/mL VEGF, (iii) medium with 2.5% serum or (iv) medium without serum or VEGF. Control compounds and test compounds were added at eight to eleven concentrations of each compound. All wells were set up in four replicates. BrdU was added to the medium 72 hours after feeding. After the overnight labeling, the cells were assayed according the manufacturers instructions and the plates were read at OD450. Average absorbance for replicate wells was used to calculate IC50 for the compounds of Table 72-1.
On the technique in general: Incorporation of labelled thymidine or its analogues reports DNA synthesis.

Series [3] in a line: in vivo. The note with it: rabbit. Here is the method:
Both eyes (or one eye depending on the study) of each animal received one or two drops (40 μl per drop) of the studied formulations using a calibrated pipette on day 0 (day of dosing).
For Tables 3-6, the solution of Example 46 (formulation #340) was administered two drops twice a day on both eyes, one time for Group I, two drops once a day on one eye, one time for Group II, and two drops once a day on both eyes for 6 days in Group III. In Group II, the right eye (OD) but not the left eye (OS) received eye drops. In a further study, one drop of the formulation #340 (40 μL containing 880 μg rapamycin) was administered on day zero.
For FIGS. 5 and 6, the aqueous rapamycin-containing formulations #329 and #330 of Table 1 were administered two drops once or twice a day for up to 28 days. For FIGS. 7 and 8, the aqueous rapamycin-containing formulations #331 and #332 of Table 1 were administered two drops twice a day for 6 days.
For FIG. 10A-B one drop of an aqueous or a non-aqueous formulation containing about 0.2% rapamycin were administered to both eyes of rabbit subjects once a day for six days (day 0 to day 6). As used herein, the terms “aqueous” and “hydrophilic” refer to formulations in which the dominant component is an aqueous compound such as water (e.g., formulations #342 and #342 of Table 1), while the terms “non-aqueous” and “lipophilic” refer to formulation in which the dominant component is a non-aqueous compound such as PEG 400 (e.g., formulations #344 and #345 of Table 1). Rapamycin concentrations in the cornea, retina choroid and blood were measured at day 7 and day 14.
For FIG. 11 one drop of a non-aqueous formulation containing about 0.2% rapamycin (e.g., formulations #344 or #345) was administered to both eyes of rabbit subjects once a day on day 0, 7, 14 and 21. Rapamycin concentrations in the cornea, retina choroid and aqueous humor were measured on days 3, 10, 17, 24 and 28.

For series [4] the following is noted: cited from earlier work.
The nature of series [5]: Pilot pharmacokinetic study, intravitreal injection of rapalog/mTOR inhibitor formulations; concentration in the vitreous (FIGS. 17, 19, 20). The note with it: 330 mcg by intravitreal injection of 10 μl of 3% agent in 97% PEG400; FIG. 17.
Method: In a pilot pharmacokinetic study, 330 mcg of the therapeutic agent was administered to rabbits by intravitreal injection of a 10 μl volume.
In a pilot pharmacokinetic study, 220 mcg of the therapeutic agent was administered to rabbits by intravitreal injection of a 10 μl volume.
For series [6], the system named is retinal and choroidal neovascularization (RNV and CNV). As to the kind of experiment: Inhibition of retinal and choroidal neovascularization in vivo (subretinal […]/bFGF/VEGF model, fluorescein angiography). On the set-up: species or system New Zealand white rabbits. Particulars: six microliter intravitreal dose of 2% agent in 4% ethanol, 94% PEG400 on Day 8; compared with 50 microliter AVASTIN (25 mg/ml). The procedure: The objective of this study was to evaluate the effects of various therapeutic agents (everolimus, sirolimus, temsirolimus, and zotarolimus) on retinal and choroidal neovascularization (RNV and CNV) in a rabbit model (Qiu et al., Exp Eye Res, 83:141-152, 2006). Liquid formulations containing 2% (w/w) of the therapeutic agents were prepared in 4% (w/w) ethanol, and 94% (w/w) PEG400. As a positive control, a formulation containing 25 mg/ml AVASTIN was used. As a negative control, vehicle (4% ethanol, 96% PEG400) was used. Recombinant human basic fibroblast growth factor (bFGF) and vascular endothelial growth factor (VEGF) were obtained from R&D Systems. New Zealand white rabbits were used in this study.
On Day 1, the right eye of each animal received a subretinal injection of 10-20 μL of […] containing 10 μg/0.1 mL b-FGF and 2 μg/0.1 mL VEGF. […]-containing formulations are kept on ice until administered. Briefly, the conjunctiva was opened and a small slit in the sclera was made to expose the vitreous. A cannula connected to a tuberculin syringe was inserted into the subretinal space and the […]/growth factor combination was delivered. The scleral and conjunctival opening were closed with a 7-0 Vicryl suture. […]

Each structure is given as a SMILES string. Values joined by “and” are separate entries in the source; they are usually repeats but may differ in a detail not shown here. Identical values can stand only once. Like-named read-outs stand apart in the source and are kept apart here.

Turning to `CC(C)n1nc(-c2cccc(C(=O)NC3=NCCS3)c2)c2c(N)ncnc21` [PP30], in series [1], the “Solubility, PEG 400” value is >13 mg/g and <22 mg/g.
As a reminder, the IC50 is the concentration that gives 50% inhibition. A lower IC50 goes with greater potency in that assay. Take `C=CC[C@@H]1/C=C(\C)C[C@H](C)C[C@H](OC)[C@H]2O[C@@](O)(C(=O)C(=O)N3CCCC[C@H]3C(=O)O[C@H](/C(C)=C/[C@@H]3CC[C@@H](O)[C@H](OC)C3)[C@H](C)[C@@H](O)CC1=O)[C@H](C)C[C@@H]2OC` [tacrolimus]: in series [2], the “potency as inhibitor of VEGF-induced proliferation relative to the other compounds tested” value is on record as “less potent inhibitors of VEGF-induced proliferation than the other compounds tested” and the IC50 worked out at 324 µM.
For `COc1ccc(COc2cc3oc(=O)c4cc(C(C)O)ccc4c3cc2OC)cc1` (stereo not shown) [palomid 529, 8-(1-hydroxy-ethyl)-2-methoxy-3-(4-methoxy-benzyloxy)-benzo[c]chromen-6-one], the “potency as inhibitor of VEGF-induced proliferation relative to the other compounds tested” value in series [2] is listed as “less potent inhibitors of VEGF-induced proliferation than the other compounds tested”.
For the compound `CO[C@H]1C[C@@H]2CC[C@@H](C)[C@@](O)(O2)C(=O)C(=O)N2CCCC[C@H]2C(=O)O[C@H]([C@H](C)C[C@@H]2CC[C@@H](O)[C@H](OC)C2)CC(=O)[C@H](C)/C=C(\C)[C@@H](O)[C@@H](OC)C(=O)[C@H](C)C[C@H](C)/C=C/C=C/C=C/1C` [sirolimus, rapamycin], the “Rapamycin level, Blood” value in series [3] (1 day) was 2.84 ng/mL. Besides, the “Rapamycin level, Blood” value in series [3] (3 day) was 27.29 ng/mL. In series [3] (Rapamycin level, Blood), the concentration at 1 day amounted to 0.00463 µg/mL, the concentration at 3 day was 0.0371 µg/mL, the concentration at 8 day is 0.0155 µg/mL and the concentration at 10 day was found to be 0.00767 µg/mL. Also, in series [3] (Rapamycin level, Blood), the concentration at 12 day was found to be 0.00288 µg/mL and the concentration at 14 day worked out at 0.0483 µg/mL. For the same compound, in series [3] (Rapamycin level, Cornea), the concentration at 8 day worked out at 169 ng/g, the concentration at 10 day was 110 ng/g, the concentration at 12 day is 97.9 ng/g and the concentration at 14 day was 84.2 ng/g. It took 0.0295 µM to reach half-maximal inhibition in series [2] (IC50). The “Solubility, Ethanol” value in series [4] (literature value) was over 90 mg/g. Also, in series [4] (literature values), the “Solubility, Aqueous” value was 1 to 2.6 µg/mL. Further, in series [1], the “Solubility, DMSO” value was over 472 mg/g; the “Solubility, PEG 400” value came out at 3 mg/g; the “physical state when formulated in PEG400” value is reported as “suspension”. Also, in series [5], the “concentration remaining in the vitreous after a single injection” value is “Sustained concentrations”.
On to `CC(C)n1nc(-c2cc3cc(O)ccc3[nH]2)c2c(N)ncnc21` [PP242, 2-(4-Amino-1-isopropyl-1H-pyrazolo[3,4-d]pyrimidin-3-yl)-1H-indol-5-ol], for which the “Solubility, PEG 400” value in series [1] is over 126 mg/g.
In series [2], `CO[C@H]1C[C@@H]2CC[C@@H](C)[C@@](O)(O2)C(=O)C(=O)N2CCCC[C@H]2C(=O)O[C@H]([C@H](C)C[C@@H]2CC[C@@H](OC(=O)C(C)(CO)CO)[C@H](OC)C2)CC(=O)[C@H](C)/C=C(\C)[C@@H](O)[C@@H](OC)C(=O)[C@H](C)C[C@H](C)/C=C/C=C/C=C/1C` [temsirolimus] returned an IC50 of 0.0159 µM. Further, in series [4] (literature values), the “Solubility, Aqueous” value is 10 to 20 µg/mL; the “Solubility, DMSO” value is over 200 mg/mL; the “Solubility, Ethanol” value is over 200 mg/mL.
As for `CO[C@H]1C[C@@H]2CC[C@@H](C)[C@@](O)(O2)C(=O)C(=O)N2CCCC[C@H]2C(=O)O[C@H]([C@H](C)C[C@@H]2CC[C@H](n3cnnn3)[C@H](OC)C2)CC(=O)[C@H](C)/C=C(\C)[C@@H](O)[C@@H](OC)C(=O)[C@H](C)C[C@H](C)/C=C/C=C/C=C/1C` [zotarolimus], the IC50 in series [2] worked out at 0.00178 µM. In series [6], the “inhibition of neovascular disease (fluorescein angiography grading)” value is listed as “inhibited neovascular disease to a greater extent than a 50 microliter dose of AVASTIN”. Moreover, in series [4] (literature values), the “Solubility, DMSO” value is over 1 mg/mL. Also, in series [4] (literature values), the “Solubility, Ethanol” value is over 100 mg/mL. Further, the “Solubility, Aqueous” value in series [4] (pH 6.5, literature value) is reported as 0.47 mcg/ml* pH 6.5; in series [4] (pH 7.4, literature value), 0.53 mcg/ml* pH 7.4.
In turn, `CO[C@H]1C[C@@H]2CC[C@@H](C)[C@@](O)(O2)C(=O)C(=O)N2CCCC[C@H]2C(=O)O[C@H]([C@H](C)C[C@@H]2CC[C@@H](OCCO)[C@H](OC)C2)CC(=O)[C@H](C)/C=C(\C)[C@@H](O)[C@@H](OC)C(=O)[C@H](C)C[C@H](C)/C=C/C=C/C=C/1C` [everolimus] came in with an IC50 in series [2] of 0.0225 µM. For the same compound, in series [4] (literature values), the “Solubility, Aqueous” value was 1 to 10.0 µg/mL; the “Solubility, DMSO” value was over 100 mg/mL; the “Solubility, Ethanol” value is over 100 mg/mL. In series [1], the “Solubility, PEG 400” value is given as over 624 mg/g and the “physical state when formulated in PEG400” value is reported as “went into solution”.
